Source: patent US20130231307A1, “NOVEL ANTIVIRAL ACYCLIC NUCLEOSIDE PHOSPHONATES” (CENTRE NATIONAL DE LA RECHERCHE SCIENTIFIQUE, priority 2010, published 2013)
Read-outs that look alike come from different tables or passages of the source.

Legend:
DNA viruses = assay type: cell-based
[1] = test system: HSV-1 TK^− (KOS acyclovir resistant, ACV)
[2] = test system: thymidine kinase-deficient VZV strain 07/1
[3] = test system: herpes simplex virus type 1 (HSV-1) (KOS)
[4] = in vivo; cited from earlier work
UMP-CMP kinase (hUCK) = biological target: T1, UMP-CMP kinase (hUCK) (Homo sapiens, UniProt P30085); conditions: cited from earlier work
T1 sequence (P30085 1-196): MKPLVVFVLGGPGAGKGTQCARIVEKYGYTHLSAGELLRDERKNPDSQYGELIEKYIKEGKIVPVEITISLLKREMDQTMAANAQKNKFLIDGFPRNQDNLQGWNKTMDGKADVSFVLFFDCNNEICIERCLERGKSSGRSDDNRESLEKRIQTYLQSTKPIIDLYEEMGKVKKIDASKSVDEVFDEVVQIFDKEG

CC(C)(C)C(=O)OCOP(=O)(C/C=C\Cn1ccc(=O)[nH]c1=O)OCOC(=O)C(C)(C)C [Ia2]
antiviral activity, [Z] versus corresponding [E] isomers (DNA viruses; HEL cell cultures): clearly less, or not antivirally active

CC(C)(C)C(=O)OCOP(=O)(C/C=C/Cn1cc(Br)c(=O)[nH]c1=O)OCOC(=O)C(C)(C)C [Ie1, (E)-N^1-(4′-bis(POM)-phosphinyl-2′-butenyl)-5-bromo-uracil]
antiviral activity against mutant TK-deficient HSV-1 TK^− [1]: pronounced antiviral activity
antiviral activity against mutant TK-deficient VZV TK [2]: pronounced antiviral activity
inhibitory activity against HSV-2 (HSV-2 (G)): most inhibitory
inhibitory activity against VZV (VZV strain OKA): most inhibitory
inhibitory activity against HSV-1 [3]: most inhibitory

CC(C)(C)C(=O)OCOP(=O)(C/C=C\Cn1cc(Br)c(=O)[nH]c1=O)OCOC(=O)C(C)(C)C [Ie2, (Z)—N^1-(4′-bis(POM)-phosphinyl-2′-butenyl)-5-bromo-uracil]
antiviral activity, [Z] versus corresponding [E] isomers (DNA viruses): clearly less, or not antivirally active

Nc1ncnc2c1ncn2CCOCP(=O)(O)OP(=O)(O)OP(=O)(O)O [PMEA-PP]
half-life in the body [4]: > 15 H

Nc1ccn(C[C@@H](CO)OCP(=O)(O)O)c(=O)n1 [cidofovir]
substrate for hUCK (UMP-CMP kinase (hUCK)): not a substrate for hUCK
